Laboratory results taken from the supplement of paper PMC10307832.

Experiments:
Assay in all cases: relative viability (nuclei count vs DMSO), 5 days (fraction); higher = more cells survive
A-427 = tested on: A-427
Method in brief: (§1)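 Relative viability divides the nuclei count in treated wells by that in vehicle wells. Lung cancer cell lines were seeded in 1536-well plates, dosed by pin tool the next day, and fixed and stained after 5 days in one step with final 0.05% Triton X-100, 1% formaldehyde and 1 ug/ml Hoechst. Dosing was a single drug or a fixed anchor-drug dose plus five library-drug doses (not always all listed) in √10 steps, and values are medians of duplicate plates imaged at 4×.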

NCI-H460 = tested on: NCI-H460
Method in brief: as §1

BEN = tested on: BEN
Method in brief: as §1

HCC-15 = tested on: HCC-15
Method in brief: as §1

NCI-H2405 = tested on: NCI-H2405
Method in brief: as §1

EMC-BAC-2 = tested on: EMC-BAC-2
Method in brief: as §1

HOP-62 = tested on: HOP-62
Method in brief: as §1

NCI-H522 = tested on: NCI-H522
Method in brief: as §1

201T = tested on: 201T
Method in brief: as §1

NCI-H1563 = tested on: NCI-H1563
Method in brief: as §1

NCI-H661 = tested on: NCI-H661
Method in brief: as §1

LK-2 = tested on: LK-2
Method in brief: as §1

NCI-H1734 = tested on: NCI-H1734
Method in brief: as §1

EKVX = tested on: EKVX
Method in brief: as §1

COR-L 105 = tested on: COR-L 105
Method in brief: as §1

PC-14 = tested on: PC-14
Method in brief: as §1

COR-L23 = tested on: COR-L23
Method in brief: as §1

HCC-78 = tested on: HCC-78
Method in brief: as §1

NCI-H647 = tested on: NCI-H647
Method in brief: as §1

NCI-H1993 = tested on: NCI-H1993
Method in brief: as §1

HCC-366 = tested on: HCC-366
Method in brief: as §1

SK-MES-1 = tested on: SK-MES-1
Method in brief: as §1

NCI-H1915 = tested on: NCI-H1915
Method in brief: as §1

Cc1csc(=NC2CCCCC2)n1/N=C/c1ccc(O)c(O)c1O [MIM1] + Nc1nc2[nH]cc(CCc3ccc(C(=O)N[C@@H](CCC(=O)O)C(=O)O)cc3)c2c(=O)[nH]1 [Pemetrexed] (partner 0.2 µM)
relative viability (A-427; first compound 0.2 µM): 1.02
relative viability (A-427; first compound 0.6325 µM): 0.947
relative viability (A-427; first compound 2 µM): 0.989
relative viability (A-427; first compound 6.325 µM): 0.901
relative viability (A-427; first compound 20 µM): 0.343
relative viability (NCI-H460; first compound 0.2 µM): 0.0717
relative viability (NCI-H460; first compound 0.6325 µM): 0.0675
relative viability (NCI-H460; first compound 2 µM): 0.0683
relative viability (NCI-H460; first compound 6.325 µM): 0.0681
relative viability (NCI-H460; first compound 20 µM): 0.0657
relative viability (BEN; first compound 0.2 µM): 0.792
relative viability (BEN; first compound 0.6325 µM): 0.751
relative viability (BEN; first compound 2 µM): 0.705
relative viability (BEN; first compound 6.325 µM): 0.709
relative viability (BEN; first compound 20 µM): 0.34
relative viability (HCC-15; first compound 0.2 µM): 0.217
relative viability (HCC-15; first compound 0.6325 µM): 0.225
relative viability (HCC-15; first compound 2 µM): 0.225
relative viability (HCC-15; first compound 6.325 µM): 0.239
relative viability (HCC-15; first compound 20 µM): 0.162
relative viability (NCI-H2405; first compound 0.2 µM): 0.945
relative viability (NCI-H2405; first compound 0.6325 µM): 0.98
relative viability (NCI-H2405; first compound 2 µM): 1.17
relative viability (NCI-H2405; first compound 6.325 µM): 0.752
relative viability (NCI-H2405; first compound 20 µM): 0.584
relative viability (EMC-BAC-2; first compound 0.2 µM): 0.421
relative viability (EMC-BAC-2; first compound 0.6325 µM): 0.436
relative viability (EMC-BAC-2; first compound 2 µM): 0.432
relative viability (EMC-BAC-2; first compound 6.325 µM): 0.448
relative viability (EMC-BAC-2; first compound 20 µM): 0.354
relative viability (HOP-62; first compound 0.2 µM): 0.362
relative viability (HOP-62; first compound 0.6325 µM): 0.34
relative viability (HOP-62; first compound 2 µM): 0.385
relative viability (HOP-62; first compound 6.325 µM): 0.328
relative viability (HOP-62; first compound 20 µM): 0.127
relative viability (NCI-H522; first compound 0.2 µM): 1.09
relative viability (NCI-H522; first compound 0.6325 µM): 1.31
relative viability (NCI-H522; first compound 2 µM): 0.951
relative viability (NCI-H522; first compound 6.325 µM): 1.01
relative viability (NCI-H522; first compound 20 µM): 0.481
relative viability (201T; first compound 0.2 µM): 0.372
relative viability (201T; first compound 0.6325 µM): 0.338
relative viability (201T; first compound 2 µM): 0.38
relative viability (201T; first compound 6.325 µM): 0.31
relative viability (201T; first compound 20 µM): 0.318
relative viability (NCI-H1563; first compound 0.2 µM): 0.883
relative viability (NCI-H1563; first compound 0.6325 µM): 0.905
relative viability (NCI-H1563; first compound 2 µM): 0.651
relative viability (NCI-H1563; first compound 6.325 µM): 0.786
relative viability (NCI-H1563; first compound 20 µM): 0.481
relative viability (NCI-H661; first compound 0.2 µM): 0.676
relative viability (NCI-H661; first compound 0.6325 µM): 0.908
relative viability (NCI-H661; first compound 2 µM): 0.975
relative viability (NCI-H661; first compound 6.325 µM): 0.651
relative viability (NCI-H661; first compound 20 µM): 0.562
relative viability (LK-2; first compound 0.2 µM): 0.276
relative viability (LK-2; first compound 0.6325 µM): 0.298
relative viability (LK-2; first compound 2 µM): 0.197
relative viability (LK-2; first compound 6.325 µM): 0.272
relative viability (LK-2; first compound 20 µM): 0.218
relative viability (NCI-H1734; first compound 0.2 µM): 0.424
relative viability (NCI-H1734; first compound 0.6325 µM): 0.448
relative viability (NCI-H1734; first compound 2 µM): 0.478
relative viability (NCI-H1734; first compound 6.325 µM): 0.412
relative viability (NCI-H1734; first compound 20 µM): 0.179
relative viability (EKVX; first compound 0.2 µM): 0.374
relative viability (EKVX; first compound 0.6325 µM): 0.392
relative viability (EKVX; first compound 2 µM): 0.318
relative viability (EKVX; first compound 6.325 µM): 0.287
relative viability (EKVX; first compound 20 µM): 0.29
relative viability (COR-L 105; first compound 0.2 µM): 1.02
relative viability (COR-L 105; first compound 0.6325 µM): 1.13
relative viability (COR-L 105; first compound 2 µM): 0.882
relative viability (COR-L 105; first compound 6.325 µM): 0.933
relative viability (COR-L 105; first compound 20 µM): 1.04
relative viability (PC-14; first compound 0.2 µM): 0.137
relative viability (PC-14; first compound 0.6325 µM): 0.124
relative viability (PC-14; first compound 2 µM): 0.151
relative viability (PC-14; first compound 6.325 µM): 0.156
relative viability (PC-14; first compound 20 µM): 0.111
relative viability (COR-L23; first compound 0.2 µM): 0.208
relative viability (COR-L23; first compound 0.6325 µM): 0.194
relative viability (COR-L23; first compound 2 µM): 0.191
relative viability (COR-L23; first compound 6.325 µM): 0.19
relative viability (COR-L23; first compound 20 µM): 0.198
relative viability (HCC-78; first compound 0.2 µM): 0.851
relative viability (HCC-78; first compound 2 µM): 0.927
relative viability (HCC-78; first compound 6.325 µM): 0.858
relative viability (HCC-78; first compound 20 µM): 0.919
relative viability (NCI-H647; first compound 0.2 µM): 0.187
relative viability (NCI-H647; first compound 0.6325 µM): 0.186
relative viability (NCI-H647; first compound 2 µM): 0.178
relative viability (NCI-H647; first compound 6.325 µM): 0.162
relative viability (NCI-H647; first compound 20 µM): 0.117
relative viability (NCI-H1993; first compound 0.2 µM): 0.572
relative viability (NCI-H1993; first compound 0.6325 µM): 0.553
relative viability (NCI-H1993; first compound 2 µM): 0.596
relative viability (NCI-H1993; first compound 6.325 µM): 0.481
relative viability (NCI-H1993; first compound 20 µM): 0.384
relative viability (HCC-366; first compound 0.2 µM): 0.161
relative viability (HCC-366; first compound 2 µM): 0.176
relative viability (HCC-366; first compound 6.325 µM): 0.152
relative viability (HCC-366; first compound 20 µM): 0.0413
relative viability (SK-MES-1; first compound 0.2 µM): 0.962
relative viability (SK-MES-1; first compound 0.6325 µM): 0.907
relative viability (SK-MES-1; first compound 2 µM): 0.796
relative viability (SK-MES-1; first compound 6.325 µM): 0.56
relative viability (SK-MES-1; first compound 20 µM): 0.298
relative viability (NCI-H1915; first compound 0.2 µM): 0.501
relative viability (NCI-H1915; first compound 0.6325 µM): 0.42
relative viability (NCI-H1915; first compound 2 µM): 0.487
relative viability (NCI-H1915; first compound 6.325 µM): 0.329
relative viability (NCI-H1915; first compound 20 µM): 0.335
